Values joined by “and” are separate entries in the source; they are usually repeats but may differ in a detail not shown here. Equal values may be shown once. Read-outs that look alike come from different tables or passages of the source.
Columns and labels:
[1] = tested on: methicillin-sensitive S. aureus ATCC 29213 (MSSA); experiment: microbe, parasite or virus in culture; conditions: Table S1; for IC50: read-out: IC50 MSSA
Description: (§1) MRSA strain ATCC 43300 and MSSA strain S. aureus ATCC 29213 were grown on Tryptic Soy Agar (TSA) plates. Before use, an isolated colony was transferred from the TSA plate into Tryptic Soy Broth (TSB) and incubated 18–24 h in a humidified incubator at 37 °C. To adjust for a standard concentration of bacteria, the turbidity of the culture was measured at 600 nm, and its optical density (OD600) adjusted to be in the range 0.08–0.12 which equates to a concentration of approximately 1 × 10^8 CFU/mL. This suspension was diluted 1:20 in TSB. […] MRSA strain S. aureus ATCC 43300 and MSSA strain S. aureus ATCC 29213 were used for all testing in this study.
(§2) The assay for anti-Staphylococcal activity of AT compounds was prepared in 96-well transparent, U-bottom plates. A series of 2-fold dilutions of AT concentrations was tested in triplicate, with each well containing 10 µL of prepared bacterium and 90 µL of AT mixture in CAMHB. […] Blank wells with only CAMHB, a negative control well with 10 µL of bacterium solution mixed into 90 µL CAMHB, a vehicle control well with bacteria mixed into 1% DMSO in CAMBH, and a positive cell death control with vancomycin (1 µL of stock 2 mg/mL solution in 89 µL CAMHB with 10 µL of bacteria) were included. The plate was incubated for 18–24 h at 37 °C in a humidified incubator. Before measurement, PrestoBlue^TM dye (Invitrogen, Carlsbad, CA, USA) was added (10 µL per well) and incubated for 1 h with aluminum foil covering the plate. A CLARIOstar® (BMG LABTECH, Cary, NC, USA) multi-mode plate reader was used to measure the fluorescence at wavelengths of 560 nm for excitation and 590 nm for emission. Inhibitory concentration (IC50) values were defined as half inhibitory concentration and were computed using GraphPad Prism version 9.1 software.

[2] = tested on: methicillin-resistant S. aureus ATCC 43300 (MRSA); experiment: Antibacterial assay (broth microdilution, PrestoBlue); format: cell-based, Staphylococcus aureus; conditions: for MRSA inhibition (100µM) / IC50: Table S1; for IC50: read-out: IC50 MRSA
Description: as §1, §2

[3] = tested on: HepG2 (ATCC HB-8065) cells; experiment: Cytotoxicity assay (PrestoBlue); format: cell-based, Human
HeLa (ATCC CCL-2) cells = experiment: Cytotoxicity assay (PrestoBlue)
Description: Human HeLa epithelial (ATCC CCL-2) and HepG2 liver epithelial (ATCC HB-8065) cell lines were used to determine toxicity of AT compounds for mammalian cells. The cells were grown in a complete culture medium of RPMI 1640 with 10% heat-inactivated fetal bovine serum (FBS) at 37 °C in 5% CO2 (95% room air) in a humidified incubator. Before use, attached cell monolayers, which had reached at least 90% confluency, were detached by trypsinization with trypsin-EDTA (0.25%) and resuspension in fresh complete culture media. For experiments, the stock concentration of 1 × 10^5 cells/mL (to achieve a final 1 × 10^4 cells/well concentration) was achieved by counting the trypsinized cells and adjusting to their final concentration for assays.
HeLa or HepG2 cells were pre-seeded into a 96-well transparent, flat bottom plate by adding a volume of 100 µL stock cell concentration (1 × 10^5 cells/mL) in complete culture media to each well. The plate was incubated overnight at 37 °C in a 5% CO2 (95% room air) humidified incubator. After the incubation and before mixing in the AT compounds, a 100 µL volume of fresh complete culture media was added to the pre-seeded wells. The 2-fold dilutions of AT compounds in triplicates were prepared on a separate 96-well plate. Once the dilution plate was prepared, dilutions were transferred into the pre-seeded plate to achieve the same concentrations of ATs as for the inhibition assay described above. The final inoculated plate was then returned to the 5% CO2 (95% room air) humidified incubator for an additional 24 h of incubation with the diluted ATs. Controls were blank wells containing only media, wells with cells and DMSO in complete culture media, and wells with cells and complete culture media only. Measurement of toxicity was analogous to the inhibition assay except that 20 µL of PrestoBlue^TM was used and the incubation was 3–6 h before reading with the plate-reader. Cytotoxicity concentration (CC50) was defined as the concentration where half of the cells remained viable and was computed using GraphPad Prism.

| Structure (SMILES) | MSSA inhibition (100µM) [1] [%] | MRSA inhibition (100µM) [2] | other results |
| --- | --- | --- | --- |
| N#Cc1ccc(-c2n[nH]nc2C(=O)c2ccccc2O)cc1 [AT100] | 58.77 | 96.47% and > 96% | IC50 [2]: 38.8 µM; CC50 [3]: 70.7 µM; CC50 (HeLa (ATCC CCL-2) cells; read-out: CC50 HeLa, Table S1): 19.1 µM |
| N#Cc1ccccc1-c1n[nH]nc1C(=O)c1ccccc1O [AT102] | 0 | 35.77% | – |
| O=C(c1ccccc1O)c1n[nH]nc1-c1ccc([N+](=O)[O-])cc1 [AT103] | 81.57 | 88.53% | IC50 [2]: 3.98 µM; CC50 [3]: 2.65 µM |
| O=C(c1ccccc1O)c1n[nH]nc1-c1cccc([N+](=O)[O-])c1 [AT104] | – | 48.19% | – |
| O=C(c1ccccc1O)c1n[nH]nc1-c1cccc(Cl)c1 [AT107] | 50.24 | 56.47% | – |
| O=C(c1ccccc1O)c1n[nH]nc1-c1ccccc1Cl [AT108] | 30.63 | 8.46% | – |
| O=C(c1ccccc1O)c1n[nH]nc1-c1ccc(I)cc1 [AT113] | 85.79 | 43.81% | – |
| O=C(c1ccccc1O)c1n[nH]nc1-c1ccc(O)cc1 [AT117] | 0 | 19.39% | – |
| N#Cc1ccc(-c2n[nH]nc2C(=O)c2cccc(Cl)c2O)cc1 [AT119] | 64.36 | 46.21% | – |
| N#Cc1ccc(-c2n[nH]nc2C(=O)c2ccc(Cl)cc2O)cc1 [AT120] | 71.82 | 99.51% | IC50 [1]: 6.03 µM; IC50 [2]: 4.18 µM; CC50 [3]: 38.1 µM; CC50 (HeLa (ATCC CCL-2) cells): 17.2 µM |
| N#Cc1ccc(-c2n[nH]nc2C(=O)c2c(O)cccc2Cl)cc1 [AT122] | 1.01 | 18.51% | – |
| Cc1ccc(-c2n[nH]nc2C(=O)c2cccc(Cl)c2O)cc1 [AT123] | 99.45 | 23.62% | IC50 [1]: 12.5 µM; IC50 [2]: 31.2 µM; CC50 [3]: 58.7 µM; CC50 (HeLa (ATCC CCL-2) cells; read-out: CC50 HeLa, Table S1): 14.4 µM |
| N#Cc1ccc(-c2n[nH]nc2C(=O)c2cccc(Br)c2O)cc1 [AT124] | 43.36 | 32.16% | IC50 [2]: 13.4 µM; CC50 [3]: 3.85 µM |
| N#Cc1ccc(-c2n[nH]nc2C(=O)c2cc(F)ccc2O)cc1 [AT126] | 64.72 | 75.06% | – |
| Cc1cc(O)c(C(=O)c2n[nH]nc2-c2cccc([N+](=O)[O-])c2)cc1C [AT130] | 58.75 | 43.97% | – |
| Cc1ccc(O)c(C(=O)c2n[nH]nc2-c2cccc([N+](=O)[O-])c2)c1 [AT131] | 21.31 | 0% | – |
| Cc1cccc(C(=O)c2n[nH]nc2-c2cccc([N+](=O)[O-])c2)c1O [AT132] | 83.03 | 57.99% | – |
| Cc1ccc(-c2n[nH]nc2C(=O)c2cc(C)c(C)cc2O)cc1 [AT133] | 88.47 | 58.84% | – |
| O=C(c1ccccc1O)c1n[nH]nc1-c1ccsc1 [AT134] | 10.83 | 0% | – |
| O=C(c1ccccc1O)c1n[nH]nc1-c1cccs1 [AT135] | 46.76 | 5.42% | decrease of anti-MRSA activity ([2]; compared with AT137 (no bromine on the thiophene ring)): over 15 fold |
| CC(=O)Nc1ccc(-c2n[nH]nc2C(=O)c2ccccc2O)cc1 [AT136] | 0 | 0% | – |

From publication PMC10525585, “Evaluation of the Antibacterial Effect of Aurone-Derived Triazoles on Staphylococcus aureus” (Antibiotics, 2023)
